Data: US8440660B2 (Santen Pharmaceutical Co., Ltd., priority 2006, dated 2013)

target: T1, Glucocorticoid Receptor (GR) (Homo sapiens, UniProt P04150); experiment: GR receptor competitor assay by fluorescence polarization (Invitrogen GR competitor assay kit, cat No. P2816); conditions: 20 μM test compound solution, 10 μL per well plus 5 μL 4×GS1 and 5 μL 4×GR solution; recombinant human GR; 2 to 4 hours at room temperature; a ratio of 100% or more is indicated by 100%; read-out: GR Binding ratio (%)
T1 construct: purchased Invitrogen P2816
T1 sequence (P04150 1-777): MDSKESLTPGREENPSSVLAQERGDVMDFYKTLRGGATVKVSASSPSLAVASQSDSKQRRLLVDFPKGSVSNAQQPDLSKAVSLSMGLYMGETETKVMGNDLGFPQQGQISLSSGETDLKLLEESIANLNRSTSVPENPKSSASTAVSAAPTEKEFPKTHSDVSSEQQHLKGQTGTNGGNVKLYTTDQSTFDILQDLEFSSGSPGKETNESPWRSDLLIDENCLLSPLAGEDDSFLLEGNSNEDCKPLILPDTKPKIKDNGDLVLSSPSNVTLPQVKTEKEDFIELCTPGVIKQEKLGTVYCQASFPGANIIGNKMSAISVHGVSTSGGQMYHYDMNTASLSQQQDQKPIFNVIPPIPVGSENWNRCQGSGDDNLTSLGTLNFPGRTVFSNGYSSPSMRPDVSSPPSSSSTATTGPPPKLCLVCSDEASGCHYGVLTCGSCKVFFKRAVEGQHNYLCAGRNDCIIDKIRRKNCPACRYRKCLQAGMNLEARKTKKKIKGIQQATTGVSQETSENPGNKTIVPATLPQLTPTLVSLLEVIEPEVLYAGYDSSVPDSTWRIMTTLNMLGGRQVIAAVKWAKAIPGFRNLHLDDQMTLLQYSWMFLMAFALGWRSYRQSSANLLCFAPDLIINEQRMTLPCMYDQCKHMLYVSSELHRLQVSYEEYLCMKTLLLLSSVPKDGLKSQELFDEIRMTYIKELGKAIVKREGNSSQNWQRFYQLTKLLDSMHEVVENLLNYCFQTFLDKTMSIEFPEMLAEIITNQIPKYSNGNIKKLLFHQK
Method: A detailed explanation of this matter will be described in the section of “Pharmacological Test” in Examples described below. In order to find the usefulness of the present compound as a pharmaceutical, a glucocorticoid receptor competitor assay was carried out by a fluorescence polarization method by using a glucocorticoid receptor competitor assay kit (manufactured by Invitrogen, cat No P2816) to study the glucocorticoid receptor binding activity of the present compound.
1. Evaluation Test for Binding Activity to Glucocorticoid Receptor (Hereinafter Referred to as “GR”)
In order to evaluate a binding activity to GR, a receptor competitor assay was carried out by a fluorescence polarization method. In the assay, a GR competitor assay kit (manufactured by Invitrogen, cat No. P2816) was used, and a procedure was carried out according to the protocol attached to the kit. Hereinafter, the specific method will be described.
(Preparation of Reagents)
GR screening buffer: A buffer containing 10 mM potassium phosphate (pH 7.4), 20 mM sodium molybdate (Na2MoO4), 0.1 mM ethylene diamine tetraacetic acid (EDTA), 5 mM dithiothreitol (DTT), 0.1 mM stabilizing peptide and 2% dimethylsulfoxide was prepared.
4×GS1 solution: Fluormone™ GS1, which is a fluorescent glucocorticoid ligand, was diluted with GR screening buffer, whereby a 4 nM solution was prepared.
4×GR solution: Recombinant human GR was diluted with GR screening buffer, whereby a 16 nM solution was prepared.
(Preparation of Test Compound Solution)
After a test compound was dissolved in dimethylsulfoxide, the resulting solution was diluted with GR screening buffer, whereby a 20 μM test compound solution was prepared.
(Test Method and Measurement Method)
1) The test compound solution was added in an amount of 10 μL into each well of a 384-well plate, and then, 4×GS1 solution and 4×GR solution were added in an amount of 5 μL into each well, respectively.
2) The plate was incubated in a dark place at room temperature for 2 to 4 hours.
3) By using a multimode plate reader, Analyst™ HT (manufactured by LJL Biosystems), fluorescence polarization of each well was measured. As the blank, a well containing GR screening buffer in place of the test compound and 4×GS1 solution was used.
4) The same procedure as that in the above 1) to 3) was carried out except that GR screening buffer was used in place of the test compound solution, and the obtained result was taken as the negative control.
5) The same procedure as that in the above 1) to 3) was carried out except that 2 mM dexamethasone was used in place of the test compound solution, and the obtained result was taken as the positive control.
(Calculation Equation of GR Binding Ratio)
A GR binding ratio (%) was calculated from the following equation. GR binding ratio (%)=100×[1−(fluorescence polarization of test compound solution−fluorescence polarization of positive control solution)/(fluorescence polarization of negative control solution−fluorescence polarization of positive control solution)] (Test Results and Discussion)

inhibition at 10 µM [%] | Structure (SMILES)
100 | COc1cc(OC(=O)c2cnccc2C)ccc1-c1ccc2c(c1COc1cc(F)ccc1C)C(C)=CC(C)(C)N2 [Compound 1-70, 5-(5-Fluoro-2-methylphenoxymethyl)-6-[2-methoxy-4-(4-methylpyridin-3-ylcarbonyloxy)phenyl]-2,2,4-trimethyl-1,2-dihydroquinoline]
100 | COc1ccc([N+](=O)[O-])cc1OCc1c(-c2ccc(OC(=O)N3CCOCC3)cc2OC)ccc2c1C(C)=CC(C)(C)N2 [Compound 6-28, 6-[2-Methoxy-4-(morpholin-4-ylcarbonyloxy)phenyl]-5-(2-methoxy-5-nitrophenoxymethyl)-2,2,4-trimethyl-1,2-dihydroquinoline]
100 | COc1cc(OC(=O)c2ccc([N+](=O)[O-])cc2)ccc1-c1ccc2c(c1COc1cc(F)ccc1C)C(C)=CC(C)(C)N2 [Compound 1-40, 5-(5-Fluoro-2-methylphenoxymethyl)-6-[2-methoxy-4-(4-nitrobenzoyloxy)phenyl]-2,2,4-trimethyl-1,2-dihydroquinoline]
92 | CCS(=O)(=O)Oc1ccc(-c2ccc3c(c2COc2cc(F)ccc2C)C(C)=CC(C)(C)N3)c(OC)c1 [Compound 4-12, 6-(4-Ethylsulfonyloxy-2-methoxyphenyl)-5-(5-fluoro-2-methylphenoxymethyl)-2,2,4-trimethyl-1,2-dihydroquinoline]
100 | COc1cc(OC(=O)c2cocn2)ccc1-c1ccc2c(c1COc1cc(F)ccc1C)C(C)=CC(C)(C)N2 [Compound 1-56, 5-(5-Fluoro-2-methylphenoxymethyl)-6-[2-methoxy-4-(oxazol-4-ylcarbonyloxy)phenyl]-2,2,4-trimethyl-1,2-dihydroquinoline]
93 | COc1ccccc1OC(=O)Oc1ccc(-c2ccc3c(c2COc2cc(F)ccc2C)C(C)=CC(C)(C)N3)c(OC)c1 [Compound 5-5, 5-(5-Fluoro-2-methylphenoxymethyl)-6-[2-methoxy-4-(2-methoxyphenoxycarbonyloxy)phenyl]-2,2,4-trimethyl-1,2-dihydroquinoline]
100 | COc1cc(OC(=O)c2ccccc2Cl)ccc1-c1ccc2c(c1COc1cc(F)ccc1C)C(C)=CC(C)(C)N2 [Compound 1-11, 6-[4-(2-Chlorobenzoyloxy)-2-methoxyphenyl]-5-(5-fluoro-2-methylphenoxymethyl)-2,2,4-trimethyl-1,2-dihydroquinoline]
91 | COc1cc(OC(=O)c2ccc([N+](=O)[O-])o2)ccc1-c1ccc2c(c1COc1cc(F)ccc1C)C(C)=CC(C)(C)N2 [Compound 1-86, 5-(5-Fluoro-2-methylphenoxymethyl)-6-[2-methoxy-4-(5-nitrofuran-2-ylcarbonyloxy)phenyl]-2,2,4-trimethyl-1,2-dihydroquinoline]
100 | COc1cc(OC(=O)c2ccncc2)ccc1-c1ccc2c(c1COc1cc(F)ccc1C)C(C)=CC(C)(C)N2 [Compound 1-43, 5-(5-Fluoro-2-methylphenoxymethyl)-6-[2-methoxy-4-(pyridin-4-ylcarbonyloxy)phenyl]-2,2,4-trimethyl-1,2-dihydroquinoline]
100 | COc1cc(OC(=O)c2ccoc2)ccc1-c1ccc2c(c1COc1cc([N+](=O)[O-])ccc1C)C(C)=CC(C)(C)N2 [Compound 1-121, 6-[4-(Furan-3-ylcarbonyloxy)-2-methoxyphenyl]-5-(2-methyl-5-nitrophenoxymethyl)-2,2,4-trimethyl-1,2-dihydroquinoline]
96 | COc1cc(OC(=O)c2ccncc2F)ccc1-c1ccc2c(c1COc1cc(F)ccc1C)C(C)=CC(C)(C)N2 [Compound 1-91, 5-(5-Fluoro-2-methylphenoxymethyl)-6-[4-(3-fluoropyridin-4-ylcarbonyloxy)-2-methoxyphenyl]-2,2,4-trimethyl-1,2-dihydroquinoline]
100 | COc1cc(OS(=O)(=O)CC(C)C)ccc1-c1ccc2c(c1COc1cc(F)ccc1C)C(C)=CC(C)(C)N2 [Compound 4-28, 5-(5-Fluoro-2-methylphenoxymethyl)-6-(4-isobutylsulfonyloxy-2-methoxyphenyl)-2,2,4-trimethyl-1,2-dihydroquinoline]
100 | COc1cc(OC(=O)C2CCCCC2)ccc1-c1ccc2c(c1COc1cc(F)ccc1C)C(C)=CC(C)(C)N2 [Compound 1-12, 6-(4-Cyclohexylcarbonyloxy-2-methoxyphenyl)-5-(5-fluoro-2-methylphenoxymethyl)-2,2,4-trimethyl-1,2-dihydroquinoline]
100 | CCCS(=O)(=O)Oc1ccc(-c2ccc3c(c2COc2cc(F)ccc2C)C(C)=CC(C)(C)N3)c(OC)c1 [Compound 4-11, 5-(5-Fluoro-2-methylphenoxymethyl)-6-(2-methoxy-4-propylsulfonyloxyphenyl)-2,2,4-trimethyl-1,2-dihydroquinoline]
100 | COc1cc(OC(=O)c2cccnc2C)ccc1-c1ccc2c(c1COc1cc([N+](=O)[O-])ccc1C)C(C)=CC(C)(C)N2 [Compound 1-122, 6-[2-Methoxy-4-(2-methylpyridin-3-ylcarbonyloxy)phenyl]-5-(2-methyl-5-nitrophenoxymethyl)-2,2,4-trimethyl-1,2-dihydroquinoline]
100 | COc1cc(OC(=O)c2ccc(C)o2)ccc1-c1ccc2c(c1COc1cc(F)ccc1C)C(C)=CC(C)(C)N2 [Compound 1-62, 5-(5-Fluoro-2-methylphenoxymethyl)-6-[2-methoxy-4-(5-methylfuran-2-ylcarbonyloxy)phenyl]-2,2,4-trimethyl-1,2-dihydroquinoline]
100 | COc1ccccc1C(=O)Oc1ccc(-c2ccc3c(c2COc2cc(F)ccc2C)C(C)=CC(C)(C)N3)c(OC)c1 [Compound 1-8, 5-(5-Fluoro-2-methylphenoxymethyl)-6-[2-methoxy-4-(2-methoxybenzoyloxy)phenyl]-2,2,4-trimethyl-1,2-dihydroquinoline]
100 | COC(=O)c1cccc(C(=O)Oc2ccc(-c3ccc4c(c3COc3cc(F)ccc3C)C(C)=CC(C)(C)N4)c(OC)c2)c1 [Compound 1-68, 5-(5-Fluoro-2-methylphenoxymethyl)-6-[2-methoxy-4-(3-methoxycarbonylbenzoyloxy)phenyl]-2,2,4-trimethyl-1,2-dihydroquinoline]

Structure (SMILES) | inhibition at 10 µM [%]
COc1cc(OC(=O)c2ccccc2OC(C)=O)ccc1-c1ccc2c(c1COc1cc(F)ccc1C)C(C)=CC(C)(C)N2 [Compound 1-50, 6-[4-(2-Acetoxybenzoyloxy)-2-methoxyphenyl]-5-(5-fluoro-2-methylphenoxymethyl)-2,2,4-trimethyl-1,2-dihydroquinoline] | 97
COC(=O)c1ccc(NC(=O)Oc2ccc(-c3ccc4c(c3COc3cc(F)ccc3C)C(C)=CC(C)(C)N4)c(OC)c2)cc1 [Compound 6-14, 5-(5-Fluoro-2-methylphenoxymethyl)-6-[2-methoxy-4-(4-methoxycarbonylphenylaminocarbonyloxy)phenyl]-2,2,4-trimethyl-1,2-dihydroquinoline] | 88
